# According to US20250177529A1, “ACOUSTIC ENRICHMENT OF ADOPTIVE CELL TRANSFERS” (THE REGENTS OF THE UNIVERSITY OF COLORADO, A BODY CORPORATE, priority 2022, published 2025):
# How the values were obtained:
# [1] = in vivo; cited from earlier work
# primary macrophages = experiment: Primary macrophage polarization by IFNγ-containing particles; assay type: cell-based; details: compared to controls
# Source text: FIG. 7 presents exemplary data showing primary macrophage polarization in various conditions.
# FIG. 7A: Normoxia (i.e., standard cell culture conditions) without interferon gamma (IFNγ).
# FIG. 7B: Normoxia with IFNγ.
# FIG. 7C: Tumor-promoting conditions (i.e., in hypoxia (1% 02) and 10 vol. % tumor (4T1)-conditioned media) and bound to IFNγ-containing particles after 24 hrs.
# As discussed above, discoidal elastomeric particles can encapsulate inflammatory cytokines (i.e., IFNγ) and polarize the cells to which they are bound. […] Macrophages maintained their polarization for 5 days, even when challenged by hypoxia (1% O2) and tumor-conditioned media (i.e., 10 vol. % tumor (4T1)-conditioned media).
Molecule,maximum tolerated dose (MTD) [1] [mg/kg],"iNOS expression, fold higher (primary macrophages) [fold]"
CC(C)(CNC(=O)c1cccc(-c2noc(C(F)(F)F)n2)c1)c1coc(-c2ccccc2)n1 [TMP195],50,
CCOCc1nc2c(N)nc3ccccc3c2n1CC(C)(C)O [resiquimod],5,
"IFNγ: inflammatory cytokine, equivalent free dose (protein, UniProt P01580 23-155, looked up) Interferon gamma: HGTVIESLESLNNYFNSSGIDVEEKSLFLDIWRNWQKDGDMKILQSQIISFYLRLFEVLKDNQAISNNISVIESHLITTFFSNSKAKKDAFMSIAKFEVNNPQVQRQAFNELIRVVHQLLPESSLRKRKRSRC",,1.3
